Results as given in patent US11629354B2, “Grain with increased nicotianamine” (The United States of America, as represented by the …, priority 2020, dated 2023).

Legend:
Assay type in all cases: in vivo, chicken
[1] = Intraamniotic administration: Fe and Zn concentration in blood serum and liver; settings: relative to unchelated Fe (Fe) and non-injected groups
Description: (§1) To generate extracts for administration, wheat flours (CE-OsNAS2, hereinafter “biofortified”; and NS, hereinafter “control”) were mixed in dH2O (50 g/L), filtered (600 μm) and centrifuged, and the resulting supernatant was dialyzed (MWCO 12-14 kDa, Medicell International Ltd., London, UK) exhaustively against dH2O (48 hrs). The dialysate was lyophilized, and the resulting powder dissolved in 18MΩ H2O (0.05 g/mL) forming the white wheat flour extracts for intra-amniotic administration. Iron solutions were prepared by combining an Fe standard (1000 μg/mL, 2% HCl, High-Purity Standards, Charleston, S.C., USA) with either 18MΩ H2O (Fe), or 1.6 mM NA (Toronto Research Chemicals Inc., Toronto, Canada) dissolved in 18MΩ H2O (Fe-NA). The Fe-EDTA solution was achieved by combining ferric nitrate (Fe(NO3)3 9H2O, Sigma, St. Louis, Mo., USA) with hydroxyethyl ethylenediamine triacetic acid (H3HEDTA, Sigma, St. Louis, Mo., USA) dissolved in sodium hydroxide (NaOH, Sigma, St. Louis, Mo., USA) to represent an anionic chelate of dissolved NaFeEDTA with final Fe concentration of 77 μM.
Cornish-cross fertile broiler eggs (n=70) were obtained from a commercial hatchery (Moyer's chicks, Quakertown, Pa., USA) and incubated until hatching. All methods were performed in accordance with the relevant guidelines and regulations. […]

intestinal villi = assay: Intraamniotic administration: intestinal functionality (goblet cell number, villi length and width)
Description: as §1
For intraamniotic administration, eggs (n=40) containing viable embryos were weighed and randomly assigned to seven groups (n≥5) based on weight distribution. At day 17 of incubation, extracts/Fe solutions (1 mL) were injected into the amniotic fluid via a 21-gauge needle for the seven treatment groups as follows: (1) non-injected (NI); (2) 18MΩ H2O (H2O); (3) Fe solution (Fe); (4) Fe-EDTA solution (Fe-EDTA); (5) Fe-NA solution (Fe-NA); (6) Control white flour extract (C WF); (7) Biofortified white flour extract (B WF) and eggs were subsequently incubated for four days until hatch. Chicks were euthanized by CO2 exposure after hatching and all tissues were collected.
Intestinal functionality and short-chain fatty acid (SCFA) analysis. […] Samples were quantified via GC-MS using a TRACE™ 1310 gas chromatograph (Thermo Fisher Scientific, Waltham, Mass., USA) and a TraceGOLD™ TG-WaxMS A column (Thermo Fisher Scientific, Waltham, Mass., USA).

[2] = system: Lactobacillus, Bifidobacterium, Escherichia, and Clostridium; assay: Intraamniotic administration: cecal microbial population analysis
Description: To generate extracts for administration, wheat flours (CE-OsNAS2, hereinafter “biofortified”; and NS, hereinafter “control”) were mixed in dH2O (50 g/L), filtered (600 μm) and centrifuged, and the resulting supernatant was dialyzed (MWCO 12-14 kDa, Medicell International Ltd., London, UK) exhaustively against dH2O (48 hrs). The dialysate was lyophilized, and the resulting powder dissolved in 18MΩ H2O (0.05 g/mL) forming the white wheat flour extracts for intra-amniotic administration. Iron solutions were prepared by combining an Fe standard (1000 μg/mL, 2% HCl, High-Purity Standards, Charleston, S.C., USA) with either 18MΩ H2O (Fe), or 1.6 mM NA (Toronto Research Chemicals Inc., Toronto, Canada) dissolved in 18MΩ H2O (Fe-NA). […]
Microbial population analysis. Lactobacillus, Bifidobacterium, Escherichia, and Clostridium density in intraamniotic administration treatment groups was determined as follows: in brief, cecal contents were homogenized with phosphate-buffered saline (PBS, 9 ml), centrifuged and the pellet resuspended in ethylenediaminetetraacetic acid (EDTA, 50 mM) and treated (37° C., 45 min) with lysozyme (10 mg/mL, Sigma Aldrich CO., St. Louis, Mo., USA). […]

[3] = relative to other treatment groups

Fe-EDTA
Blood serum Fe concentration [1]: significantly elevated
Intestinal villi width (intestinal villi; relative to all treatment groups): increased significantly
Goblet cell number in intestinal villi (intestinal villi; [3]): decreased significantly
Intestinal villi length (intestinal villi; [3]): increased significantly
abundance of Clostridium in cecum ([2]; relative to C-WF): significantly increased
abundance of Escherichia in cecum ([2]; relative to Fe-NA): significantly increased
